Laboratory results published in patent US20240216344A1, “THIAZOLIDINEDIONE ANALOGS FOR THE TREATMENT OF NAFLD AND METABOLIC DISEASES” (Cirius Therapeutics, Inc., priority 2019, published 2024).

Test system: patients with biopsy-proven NASH with fibrosis and no cirrhosis
Test: EMMINENCE Phase 2b trial, liver histology at 12 months
Type: in vivo, human
Conditions: for subjects showing NAS histological improvement: PNPLA3 rs738409-G both copies (GG genotype)
Procedure: embodiments, the histological features are measured by a NAFLD Activity Score (NAS). The scoring system comprised 14 histological features, 4 of which are evaluated semi-quantitatively: steatosis (0-3), lobular inflammation (0-2), hepatocellular ballooning (0-2), and fibrosis (0-4). Another nine features are recorded as present or absent. A liver biopsy of the subject is formalin-fixed and paraffin-embedded. Serial sections of the liver biopsy are hematoxylin and eosin (H&E) stained. The liver biopsy stained sections are examined for NAS scores. For example, hepatocellular ballooning is graded from 0 to 2 (0: normal hepatocytes with cuboidal shape and pink eosinophilic cytoplasm; 1: presence of clusters of hepatocytes with a rounded shape and pale cytoplasm usually reticulated. Lobular inflammation is defined as a focus of two or more inflammatory cells within the lobule. Foci are counted at 20 magnification (0: none; 1: 2 foci per 20; 2: >2 foci per 20).
Study Design: EMMINENCE was a randomized, double-blind evaluation of three oral daily doses of MSDC-0602K (62.5 mg, 125 mg and 250 mg) or placebo given for 12 months to adult patients with biopsy-proven NASH with fibrosis and no cirrhosis. The primary efficacy endpoint was assessed at 12 months. Clinic visits were conducted at baseline, 1, 2, 3, 6, 9, and 12 months, followed 2 weeks later by a safety visit. An interim analysis of safety and efficacy not related to the primary and secondary endpoints was conducted when 6 month data were available for 328 patients (see Example 5, above.) Interim results were provided only as summary statistics to avoid any unmasking of the study team or sponsor.
Participants: Eligible patients were at least 18 years old with NASH (NAS≥4; score ≥1 in each component [steatosis, ballooning, inflammation]) with F1 to F3 fibrosis on liver biopsy taken between 9 months prior to screening and randomization according to a central histopathologist.
If no usable liver biopsy was available within 9 months prior to screening, a percutaneous liver biopsy was performed in patients with AST≥20 U/L and FibroScan CAP score ≥270 db/m and kPa≥8.5. Digitized slides were read by a single expert histopathologist according to NASH Clinical Research Network criteria. Baseline biopsies were read first for study qualification and a second time mixed randomly among 12-month biopsies. Fasting blood samples for routine central laboratory analyses were collected at each visit, and frozen samples collected at selected visits for biomarker assays.
Efficacy endpoints: The primary efficacy endpoint was hepatic histological improvement in NAS defined as ≥2-point NAS decrease with a ≥1-point reduction in either ballooning or lobular inflammation and no increase in fibrosis stage at 12 months. Secondary efficacy endpoints included (1) NASH resolution defined as hepatocellular ballooning score of 0 and lobular inflammation score of 0-1 with no increase in fibrosis stage at 12 months, (2) fibrosis improvement defined as ≥1-stage decrease in fibrosis with no worsening of lobular inflammation or hepatocellular ballooning, (3) change from baseline in NAFLD activity score (NAS) and each one of its components (steatosis, lobular inflammation and ballooning) at 12 months, and (4) change from baseline in fibrosis score at 12 months. Exploratory efficacy endpoints included shifts in the central histopathologist's NASH diagnosis confirmation, and changes from baseline to 12 months in markers of glycemic control and insulin sensitivity, liver function/injury, and apoptosis and liver fibrosis.
Using a modified intent-to-treat approach, treated patients were included for analysis in their randomly-assigned treatment groups. Participation of sites with serious GCP or quality concerns were terminated and their data excluded from the analyses. Post-baseline measures through 14 days after the last study drug dose were included. No errors in treatment assignment occurred. […]

[1] = 125 mg and 250 mg combined vs placebo, 12 months
[2] = 125 mg and 250 mg combined, 12 months

COc1cccc(C(=O)COc2ccc(CC3SC(=O)NC3=O)cc2)c1 (stereo not drawn) [MSDC-0602K]
confirmed NASH diagnosis at baseline (re-read) not confirmed at 12 months (62.5 mg): 32.1%
Fibrosis improvement, adjusted OR (62.5 mg vs placebo, 12 months): 1.19
Fibrosis improvement, adjusted risk difference (62.5 mg vs placebo, 12 months): 0.028
NAS improvement, adjusted OR (62.5 mg vs placebo, 12 months): 0.89
NAS improvement, adjusted risk difference (62.5 mg vs placebo, 12 months): −0.020
NASH resolution, adjusted OR (62.5 mg vs placebo, 12 months): 1.09
NASH resolution, adjusted risk difference (62.5 mg vs placebo, 12 months): 0.013
Fibrosis improvement, % of patients (62.5 mg, 12 months): (23.8) %
Fibrosis improvement, n/N (62.5 mg, 12 months): 20/84
NAS improvement (primary endpoint), n/N (62.5 mg, 12 months): 25/84
NASH resolution, % of patients (62.5 mg, 12 months): (20.2) %
NASH resolution, n/N (62.5 mg, 12 months): 17/84
adjusted mean difference in NAS change to 12 months vs placebo (125 mg): −0.6 points
adjusted mean difference in steatosis change to 12 months vs placebo (125 mg): −0.2 points
confirmed NASH diagnosis at baseline (re-read) not confirmed at 12 months (125 mg): 26.5%
Fibrosis improvement, adjusted OR [1]: 1.48
Fibrosis improvement, adjusted risk difference [1]: 0.073
NAS improvement, adjusted OR [1]: 1.43
NAS improvement, adjusted risk difference [1]: 0.075
NASH resolution, adjusted OR [1]: 1.66
NASH resolution, adjusted risk difference [1]: 0.093
Fibrosis improvement, % of patients [2]: (28.6) %
Fibrosis improvement, n/N [2]: 48/168
NAS improvement (primary endpoint), % of patients [2]: (36.3) %
NAS improvement (primary endpoint), n/N [2]: 61/168
NASH resolution, % of patients [2]: (29.8) %
NASH resolution, n/N [2]: 50/168
Fibrosis improvement, adjusted OR (125 mg vs placebo, 12 months): 1.45
Fibrosis improvement, adjusted risk difference (125 mg vs placebo, 12 months): 0.067
NAS improvement, adjusted OR (125 mg vs placebo, 12 months): 1.22
NAS improvement, adjusted risk difference (125 mg vs placebo, 12 months): 0.044
NASH resolution, adjusted OR (125 mg vs placebo, 12 months): 1.50
NASH resolution, adjusted risk difference (125 mg vs placebo, 12 months): 0.075
Fibrosis improvement, % of patients (125 mg, 12 months): (28.0) %
Fibrosis improvement, n/N (125 mg, 12 months): 23/82
NAS improvement (primary endpoint), n/N (125 mg, 12 months): 27/82
NASH resolution, % of patients (125 mg, 12 months): (28.0) %
NASH resolution, n/N (125 mg, 12 months): 23/82
adjusted mean difference in NAS change to 12 months vs placebo (250 mg): −0.5 points
adjusted mean difference in steatosis change to 12 months vs placebo (250 mg): −0.3 points
confirmed NASH diagnosis at baseline (re-read) not confirmed at 12 months (250 mg): 30.2%
Fibrosis improvement, adjusted OR (250 mg vs placebo, 12 months): 1.51
Fibrosis improvement, adjusted risk difference (250 mg vs placebo, 12 months): 0.077
NAS improvement, adjusted OR (250 mg vs placebo, 12 months): 1.64
NAS improvement, adjusted risk difference (250 mg vs placebo, 12 months): 0.104
NASH resolution, adjusted OR (250 mg vs placebo, 12 months): 1.82
NASH resolution, adjusted risk difference (250 mg vs placebo, 12 months): 0.108
Fibrosis improvement, % of patients (250 mg, 12 months): (29.1) %
Fibrosis improvement, n/N (250 mg, 12 months): 25/86
NAS improvement (primary endpoint), n/N (250 mg, 12 months): 34/86
NASH resolution, % of patients (250 mg, 12 months): (31.4) %
NASH resolution, n/N (250 mg, 12 months): 27/86
subjects showing NAS histological improvement (62.5 mg): about 17.9%
subjects showing NAS histological improvement (250 mg): about 34.5%
